Drawing on paper PMC12064818, “A general assay platform to study protein pharmacology using ligand-dependent structural dynamics” (Nature Communications, 2025), this text covers EC50 for one compound.

For the test, the target named is E. coli Lig-N-HiBiT (DNA ligase) (Escherichia coli, UniProt P15042). Put plainly: biochemical.
E. coli Lig-N-HiBiT (DNA ligase), sequence (P15042 2-671): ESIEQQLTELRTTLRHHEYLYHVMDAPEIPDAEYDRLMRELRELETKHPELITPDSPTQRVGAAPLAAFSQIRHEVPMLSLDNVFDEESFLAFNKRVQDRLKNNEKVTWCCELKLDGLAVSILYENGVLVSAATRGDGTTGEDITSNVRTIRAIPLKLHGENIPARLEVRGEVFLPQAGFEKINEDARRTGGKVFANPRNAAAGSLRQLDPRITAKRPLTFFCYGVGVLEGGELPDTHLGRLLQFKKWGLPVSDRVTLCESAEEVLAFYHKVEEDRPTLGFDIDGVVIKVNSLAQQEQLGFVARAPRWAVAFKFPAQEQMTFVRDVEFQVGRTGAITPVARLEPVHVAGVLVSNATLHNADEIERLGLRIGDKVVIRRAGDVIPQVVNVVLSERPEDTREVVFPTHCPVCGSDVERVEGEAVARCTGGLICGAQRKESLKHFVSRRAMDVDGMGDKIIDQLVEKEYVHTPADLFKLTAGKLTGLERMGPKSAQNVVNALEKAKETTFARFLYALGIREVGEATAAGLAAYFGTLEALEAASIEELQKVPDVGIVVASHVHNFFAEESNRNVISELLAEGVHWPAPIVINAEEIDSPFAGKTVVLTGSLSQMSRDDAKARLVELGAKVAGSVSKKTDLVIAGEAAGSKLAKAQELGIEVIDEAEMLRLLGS

Turning to `Nc1ncnc2c1ncn2[C@@H]1O[C@H](COP(=O)(O)OP(=O)(O)OP(=O)(O)O)[C@@H](O)[C@H]1O` [ATP], the EC50 is no less than 100 µM.
